This test has as its system human osteoporosis. The experiment in a line: Case 1: bone density and symptoms of a person with compression fractures. In kind it is in vivo. The settings on record: human patient. An excerpt:
In the present specification, bone density can be measured by an existing measuring method, for example, by dual-energy-x-ray absorptiometry (DXA) of the trunk bone.

The mark [1] stands for this setting: hydrogen gas inhalation 1.5% to 2.0% by volume.

On to “denosumab [Pralia Subcutaneous Injection, reference compound]”, for which the bone density result was “exceeded 80%” (baseline 74%, injection once every six months, 18 months later); 84% (injection once every six months, August 2020); 86% (injection once every six months, February 2020).

In the case of `[HH]` [hydrogen gas, molecular hydrogen], under setting [1], the body feeling entry is on record as “feeling that the body became light”; the “daily activity (weeding in the garden)” value is “weeding in the garden becoming easy”; the “feeling when waking up in the morning” value is “having a good feeling and feeling refreshed”; the gait entry was “improvement in the gait”. For the same compound, under setting [1], the “pain at the compression fracture sites in the lower back” value is on record as “improvement” and the tiredness entry is “feeling tired less easily”. For the setting “inhalation from November 2020, 1.5% to 2.0% by volume hydrogen, 30 mL/min, nightly, measured March 2021 (84% in August 2020)”, the bone density came out at 92%.

For the origin of these results see patent US20220280558A1, “MOLECULAR HYDROGEN-CONTAINING COMPOSITION FOR PREVENTING OR IMPROVING OSTEOPOROSIS” (MiZ Company Limited, priority 2021, published 2022).
